Data from US20240197700A1, “Methods and Compositions for Treating Lysosomal Storage Disorders” (Sanford Health, priority 2021, published 2024).
“Also recorded” adds a separate entry of the source.

Tested on: NCL MEFs
Experiment: Autofluorescent storage material (ASM) in Batten disease mouse embryonic fibroblasts
Type: cell-based
Method: Specific experimental details are included in figure legends. In general, after collection and preparation, MEFs and PNCs were dosed with vehicle or AF38469 (40 nM, 400 nM. or 4 μM) on DIV3 and DIV5. On DIV7, cells were treated with the following dyes: Hoechst 33342 (1:1000 dilution), LysoTrackerT™ Red DND-99 (1:10,000 dilution), fixed, and imaged. Mice were given vehicle or AF38469 (78.125 μg/ml, 3.125 μg/ml, 0.3125 μg/ml or 0.03125 μg/ml equating approximately to 250 μg/mouse/day, 10 μg/mouse/day, 1 μg/mouse/day, and […], respectively, given a mouse's daily water intake of approximately 3.2 ml per day) in drinking water beginning at wean. Body weight was measured bi-weekly, and a force actimeter test was performed on Cln2^R207X mice at 10 weeks of age. Body weight was measured every month for Cln3^Δex7/8 mice. At 11 and 16 weeks of age, respectively, Cln2^R207X and Cln3^Δex7/8 mice along with age matched wild type control mice were CO2 euthanized and intracardially perfused with PBS. Brains were collected and placed on a 1 mm sagittal brain block. Brains were sliced at the midline and 3 mm right of the midline. One hemisphere was fixed in 4% PFA and sectioned at 50 microns on a vibratome. Immunohistochemistry was performed on free-floating sections. For mitochondrial ATP synthase subunit C (SubC), glial fibrillary acidic protein (GFAP), and cluster of differentiation 68 (CD68) immunolabeling, primary antibodies included anti-SubC (Abcam, ab181243; 1:1000), anti-GFAP (Dako, Z0334; 1:5000), anti-CD68 (AbD Serotec, MCA1957; 1:2000), and secondary antibodies included anti-rabbit biotinylated (Vector Labs, BA-1000 1:1000) and anti-rat (Vector Labs, BA-9400 1:1000). Coverslips were mounted on slides using antifade-mounting media and were stored in the dark before imaging. Sections were imaged and analyzed using an Aperio Digital Pathology Slide Scanner (AT2) and associated software. Images were extracted from S1BF of the somatosensory cortex and the VPM/VPL of the thalamus, with multiple images taken of multiple tissues from each animal.
• An increase in percent area or total area of positive autofluorescent storage material (ASM) signal in untreated NCL MEFs or PNCs relative to age-matched, wild type MEFs or PNCs is considered an increase in the accumulation of autofluorescent storage material, reflecting disease-related lysosomal dysfunction. • A decrease in percent area or total area of positive autofluorescent storage material signal in AF38469 treated MEFs and PNCs relative to age-matched, vehicle treated MEFs and PNCs is considered a reduction in the accumulation of autofluorescent storage material and thus a decrease in disease-related lysosomal dysfunction. • LysoTracker™ is an acidophilic dye that labels lysosomes and accumulation increases with an increase in lysosome size or number. Cell and mouse models of lysosomal storage disorders often have increased accumulation of lysosomes and therefore have a stronger LysoTracker™ signal. […]

`CC[C@H](C)[C@H](N)C(=O)NCCN1CCOCC1` [LM11A-31, N-[2-(morpholin-4-yl)ethyl]-L-isoleucinamide] was tested, and the “accumulation of autofluorescent storage material (ASM)” value (shortened to “accumulation”) (LM11A-31 100 nM, 1 μM, 10 μM, Cln1^R151X, Cln6^nclf, Cln8^mnd MEFs, DIV7) was “did not reduce” and the “accumulation” value (LM11A-31 (mid to high doses), Cln2^R207X and Cln3^Δex4/8 (so in the source) MEFs) was “trended towards reductions; also recorded: decreasing trend”.

For `Cc1cccc(NC(=O)c2ccc(C(F)(F)F)cc2C(=O)O)n1` [AF38469, 2-((6-methylpyridin-2-yl)carbamoyl)-5-(trifluoromethyl)benzoic acid], the “accumulation” value (40 nM, 400 nM, 4 μM, Cln1^R151X, Cln2^R207X, Cln3^Δex7/8, Cln6^nclf, Cln8^mnd MEFs, DIV7) was “significantly reduced” and the “accumulation” value (Cln11^−/− MEFs, DIV7) was “did not have an impact”.

For semaglutide, the “accumulation” value (semaglutide 10 nM, 100 nM, 1 μM, Cln1^R151X, Cln2^R207X, Cln3^Δex7/8, Cln6^nclf, Cln8^mnd MEFs) was “had no impact”.
